29 compounds from patent US10370387B2, “Tricyclic fused thiophene derivatives as JAK inhibitors” (Incyte Corporation, priority 2012, dated 2019) can be followed below.

Structures can show the parent of a compound that is named as a salt.

The subject of the test is human JAK1. The experiment in a line: In vitro JAK kinase assay (HTRF, phosphorylation of biotinylated peptide), JAK1. The format is biochemical. The conditions noted are these: ratio of JAK2 IC50 to JAK1 IC50, 1 mM ATP. On the procedure: Compounds herein were tested for inhibitory activity of JAK targets according to the following in vitro assay described in Park et al., Analytical Biochemistry 1999, 269, 94-104. The catalytic domains of human JAK1 (a.a. 837-1142), JAK2 (a.a. 828-1132) and JAK3 (a.a. 781-1124) were expressed using baculovirus in insect cells and purified. The catalytic activity of JAK1, JAK2 or JAK3 was assayed by measuring the phosphorylation of a biotinylated peptide. The phosphorylated peptide was detected by homogenous time resolved fluorescence (HTRF). IC50s of compounds were measured for each kinase in the 40 μL reactions that contain the enzyme, ATP and 500 nM peptide in 50 mM Tris (pH 7.8) buffer with 100 mM NaCl, 5 mM DTT, and 0.1 mg/mL (0.01%) BSA. For the 1 mM IC50 measurements, ATP concentration in the reactions was 1 mM. Reactions were carried out at room temperature for 1 hour and then stopped with 20 μL 45 mM EDTA, 300 nM SA-APC, 6 nM Eu-Py20 in assay buffer (Perkin Elmer, Boston, Mass.). Binding to the Europium labeled antibody took place for 40 minutes and HTRF signal was measured on a PHERA star plate reader (BMG, Cary, N.C.). The Example compounds were each tested in the Example A assay (see Table 1 for data for the compounds of the examples as tested by the assay of Example A at 1 mM ATP).
In the case of `N#CCc1nc2cnc3ccsc3c2n1[C@H]1CC[C@H](CC#N)OC1` [Example 73, {(2R,5S)-5-[2-(Cyanomethyl)-1H-imidazo[4,5-d]thieno[3,2-b]pyridin-1-yl]tetrahydro-2H-pyran-2-yl}acetonitrile], the JAK2/JAK1 is reported as above 10.
Consider “((1R,2S,4S)-2-Hydroxy-4-{2-[(1R)-1-hydroxyethyl]-1H-imidazo[4,5-d]thieno[3,2-b]pyridin-1-yl}cyclohexyl)acetonitrile trifluoacetate and ((1S,2R,4R)-2-hydroxy-4-{2-[(1R)-1-hydroxyethyl]-1H-imidazo[4,5-d]thieno[3,2-b]pyridin-1-yl}cyclohexyl)acetonitrile trifluoacetate [37 (first peak)]”, for which the JAK2/JAK1 is recorded as above 10.
Turning to `C[C@@H](O)c1nc2cnc3ccsc3c2n1[C@H]1CC[C@H](CNS(C)(=O)=O)OC1` [Example 75, N-[((2R,5S)-5-{2-[(1R)-1-Hydroxyethyl]-1H-imidazo[4,5-d]thieno[3,2-b]pyridin-1-yl}tetrahydro-2H-pyran-2-yl)methyl]methanesulfonamide], the JAK2/JAK1 is on record as above 10.
As for `Cc1nc2cnc3ccsc3c2n1[C@@H]1CC[C@@H](CC#N)[C@@H](O)C1` (mixture of isomers) [Example 34, Mixture of [(1R, 2R, 4S)-2-hydroxy-4-(2-methyl-1H-imidazo[4,5-d]thieno[3,2-b]pyridin-1-yl)cyclohexyl]acetonitrile trifluoroacetate and [(1S, 2S, 4R)-2-hydroxy-4-(2-methyl-1H-imidazo[4,5-d]thieno[3,2-b]pyridin-1-yl)cyclohexyl]acetonitrile trifluoroacetate], the JAK2/JAK1 is on record as above 10.
Consider `CNC(C)c1nc2cnc3ccsc3c2n1[C@H]1CC[C@H](CC#N)OC1` (stereo partly drawn) [Example 70, ((2R,5S)-5-{2-[1-(Methylamino)ethyl]-1H-imidazo[4,5-d]thieno[3,2-b]pyridin-1-yl}tetrahydro-2H-pyran-2-yl)acetonitrile], for which the JAK2/JAK1 is given as above 10.
As to `C[C@@H](O)c1nc2cnc3ccsc3c2n1[C@H]1CCN(C(=O)CC#N)C1` [Example 63, 3-((3S)-3-{2-[(1R)-1-Hydroxyethyl]-1H-imidazo[4,5-d]thieno[3,2-b]pyridin-1-yl}pyrrolidin-1-yl)-3-oxopropanenitrile], the JAK2/JAK1 was above 6.
In the case of `N#CC[C@H]1CC[C@H](n2c(C3CC3)nc3cnc4ccsc4c32)CC1` [Example 26, [trans-4-(2-Cyclopropyl-1H-imidazo[4,5-d]thieno[3,2-b]pyridin-1-yl)cyclohexyl]acetonitrile], the JAK2/JAK1 is reported as above 10.
Take `C[C@@H](O)c1nc2cnc3ccsc3c2n1C1CCCCC1` [Example 13, (1R)-1-(1-Cyclohexyl-1H-imidazo[4,5-d]thieno[3,2-b]pyridin-2-yl)ethanol]: the JAK2/JAK1 is above 10.
With “((1R,2R,4S)-2-Hydroxy-4-{2-[(1R)-1-hydroxyethyl]-1H-imidazo[4,5-d]thieno[3,2-b]pyridin-1-yl}cyclohexyl)acetonitrile and ((1S,2S,4R)-2-hydroxy-4-{2-[(1R)-1-hydroxyethyl]-1H-imidazo[4,5-d]thieno[3,2-b]pyridin-1-yl}cyclohexyl)acetonitrile [36 (second peak)]”, the JAK2/JAK1 was above 10.
As for `C[C@@H](O)c1nc2cnc3ccsc3c2n1C1CCC(NCCC#N)CC1` (single isomer, unassigned) [30 (second peak)], the JAK2/JAK1 was above 10.
In the case of `CCOC(=O)NC[C@H]1CC[C@H](n2c([C@@H](C)O)nc3cnc4ccsc4c32)CC1` [Example 82, Ethyl [(trans-4-{2-[(1R)-1-hydroxyethyl]-1H-imidazo[4,5-d]thieno[3,2-b]pyridin-1-yl}cyclohexyl)methyl]carbamate], the JAK2/JAK1 was above 10.
With `CN1CC(c2nc3cnc4ccsc4c3n2[C@H]2CC[C@H](CC#N)CC2)C1` [Example 29, {trans-4-[2-(1-Methylazetidin-3-yl)-1H-imidazo[4,5-d]thieno[3,2-b]pyridin-1-yl]cyclohexyl}acetonitrile] the figure was above 9.
With `CCc1nc2cnc3ccsc3c2n1[C@H]1CC[C@H](CC#N)OC1` [Example 39, [(2R,5S)-5-(2-Ethyl-1H-imidazo[4,5-d]thieno[3,2-b]pyridin-1-yl)tetrahydro-2H-pyran-2-yl]acetonitrile] the figure was above 10; with `N#CCc1nc2cnc3ccsc3c2n1[C@H]1CC[C@@H](CC#N)OC1` [Example 74, {(2S,5S)-5-[2-(Cyanomethyl)-1H-imidazo[4,5-d]thieno[3,2-b]pyridin-1-yl]tetrahydro-2H-pyran-2-yl}acetonitrile], above 10.
Regarding `C[C@@H](O)c1nc2cnc3ccsc3c2n1[C@H]1CC[C@H](CNC(=O)N(C)C)CC1` [Example 81, N′-[(trans-4-{2-[(1R)-1-Hydroxyethyl]-1H-imidazo[4,5-d]thieno[3,2-b]pyridin-1-yl}cyclohexyl)methyl]-N,N-dimethylurea], the JAK2/JAK1 is recorded as above 10.
Regarding `C[C@@H](O)c1nc2cnc3ccsc3c2n1[C@H]1CC[C@H](NCC(F)(F)F)CC1` [Example 4, (1R)-1-(1-{trans-4-[(2,2,2-Trifluoroethyl)amino]cyclohexyl}-1H-imidazo[4,5-d]thieno[3,2-b]pyridin-2-yl)ethanol], the JAK2/JAK1 was above 10.
As for `CC(N)c1nc2cnc3ccsc3c2n1[C@H]1CC[C@H](CC#N)OC1.O=C(O)C(F)(F)F` (stereo partly drawn) [Example 68, {(2R,5S)-5-[2-(1-Aminoethyl)-1H-imidazo[4,5-d]thieno[3,2-b]pyridin-1-yl]tetrahydro-2H-pyran-2-yl}acetonitrile trifluoroacetate], the figure is above 10.
With `CCOC(=O)NC[C@H]1CC[C@H](n2c(CC#N)nc3cnc4ccsc4c32)CC1` [Example 87, Ethyl ({trans-4-[2-(cyanomethyl)-1H-imidazo[4,5-d]thieno[3,2-b]pyridin-1-yl]cyclohexyl}methyl)carbamate] the figure was above 10; with `C[C@@H](O)c1nc2cnc3ccsc3c2n1C1CCCC(CCC#N)C1` (stereo partly drawn) [Example 32, 3-(3-{2-[(1R)-1-Hydroxyethyl]-1H-imidazo[4,5-d]thieno[3,2-b]pyridin-1-yl}cyclohexyl)propanenitrile], above 10; with `CCNC(=O)C[C@H]1CC[C@H](n2c([C@@H](C)O)nc3cnc4ccsc4c32)CC1` [Example 31, N-Ethyl-2-(trans-4-{2-[(1R)-1-hydroxyethyl]-1H-imidazo[4,5-d]thieno[3,2-b]pyridin-1-yl}cyclohexyl)acetamide], above 10.
For `C[C@@H](O)c1nc2cnc3ccsc3c2n1[C@H]1CCN(CCC#N)C1` [Example 62, 3-((3S)-3-{2-[(1R)-1-Hydroxyethyl]-1H-imidazo[4,5-d]thieno[3,2-b]pyridin-1-yl}pyrrolidin-1-yl)propanenitrile], the JAK2/JAK1 was above 10.
In the case of `C[C@@H](O)c1nc2cnc3ccsc3c2n1[C@H]1CC[C@H](CC#N)CC1` [Example 2, (trans-4-{2-[(1R)-1-Hydroxyethyl]-1H-imidazo[4,5-d]thieno[3,2-b]pyridin-1-yl}cyclohexyl)acetonitrile], the JAK2/JAK1 is above 10.
As for `C[C@@H](O)c1cc2cnc3ccsc3c2n1[C@H]1CC[C@H](CC#N)CC1` [Example 23, (trans-4-{7-[(1R)-1-Hydroxyethyl]-8H-pyrrolo[2,3-d]thieno[3,2-b]pyridin-8-yl}cyclohexyl)acetonitrile], the figure is above 10.
For `C[C@@H](O)c1nc2cnc3ccsc3c2n1[C@H]1CC[C@@H](n2cncn2)CC1` [Example 6, (1R)-1-{1-[cis-4-(1H-1,2,4-Triazol-1-yl)cyclohexyl]-1H-imidazo[4,5-d]thieno[3,2-b]pyridin-2-yl}ethanol], the JAK2/JAK1 is above 6.
Turning to `CC(C)c1nc2cnc3ccsc3c2n1[C@H]1CC[C@H](CC#N)CC1` [Example 27, [trans-4-(2-Isopropyl-1H-imidazo[4,5-d]thieno[3,2-b]pyridin-1-yl)cyclohexyl]acetonitrile], the JAK2/JAK1 is given as above 10.
With `N#CCc1nc2cnc3ccsc3c2n1[C@H]1CC[C@H](CC#N)CC1` [Example 90, {1-[trans-4-(Cyanomethyl)cyclohexyl]-1H-imidazo[4,5-d]thieno[3,2-b]pyridin-2-yl}acetonitrile] the figure was above 10; with `C[C@@H](O)c1nc2cnc3ccsc3c2n1C1CCNCC1F` (stereo partly drawn) [9 (2nd peak), (1R)-1-[1-(3-Fluoropiperidin-4-yl)-1H-imidazo[4,5-d]thieno[3,2-b]pyridin-2-yl]ethanol], above 10; with `C[C@@H](O)c1nc2cnc3ccsc3c2n1[C@H]1CCCN(C(=O)CC#N)C1.O=C(O)C(F)(F)F` [Example 51, 3-((3S)-3-{2-[(1R)-1-Hydroxyethyl]-1H-imidazo[4,5-d]thieno[3,2-b]pyridin-1-yl}piperidin-1-yl)-3-oxopropanenitrile trifluoroacetate], above 10.
For the compound `C[C@@H](O)c1nc2cnc3ccsc3c2n1[C@H]1CCCN(C(=O)CCCC#N)C1` [Example 59, 5-((3S)-3-{2-[(1R)-1-Hydroxyethyl]-1H-imidazo[4,5-d]thieno[3,2-b]pyridin-1-yl}piperidin-1-yl)-5-oxopentanenitrile], the JAK2/JAK1 is above 10.
